Data: publication PMC5173319, “Crenactin forms actin-like double helical filaments regulated by arcadin-2” (eLife, 2016)

Experiments:
crenactin [1] = biological target: T1, crenactin (Pyrobaculum calidifontis, UniProt A3MWN5); assay: cryoEM helical reconstruction, […] A; format: binding; details: filament polymerised with 2 mM ATP and 4 mM MgCl2, 50 mM NH4HCO3, 20 mM KCl, on ice; ATPase active site
T1 construct: gene cren-1; full length 1-432, N-terminal His6-SUMO tag cleaved by SENP1; E. coli C41(DE3), codon-optimised gene; double helical filament (homopolymer); model residues 5-430
T1 sequence (A3MWN5 whole entry, the tested form may be a part): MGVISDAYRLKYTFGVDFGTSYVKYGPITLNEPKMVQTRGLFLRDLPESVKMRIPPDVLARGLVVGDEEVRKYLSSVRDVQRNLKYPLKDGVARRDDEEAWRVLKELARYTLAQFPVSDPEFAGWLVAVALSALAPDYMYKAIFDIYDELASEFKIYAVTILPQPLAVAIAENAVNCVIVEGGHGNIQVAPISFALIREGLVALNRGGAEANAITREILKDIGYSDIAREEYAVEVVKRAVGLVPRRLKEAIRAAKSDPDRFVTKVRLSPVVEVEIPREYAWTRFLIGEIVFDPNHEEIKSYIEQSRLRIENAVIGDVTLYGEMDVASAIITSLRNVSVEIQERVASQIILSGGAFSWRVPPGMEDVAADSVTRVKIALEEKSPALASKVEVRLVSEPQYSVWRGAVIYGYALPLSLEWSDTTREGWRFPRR

crenactin [2] = biological target: T1, crenactin; assay: […] degree light scattering, polymerisation; format: biochemical; details: 3 uM crenactin, 2 mM ATP, 4 mM MgCl2, 50 mM NH4HCO3, 50 mM NaCl, 8% PEG 8000, 25 C

SMILES	cryoEM helical reconstruction, 3.8 A (crenactin [1])	90 degree light scattering, polymerisation (crenactin [2])
Nc1ncnc2c1ncn2[C@@H]1O[C@H](COP(=O)(O)OP(=O)(O)O)[C@@H](O)[C@H]1O [ADP]	The cryoEM density for the ADP nucleotide is superimposed.	
Nc1ncnc2c1ncn2[C@@H]1O[C@H](COP(=O)(O)OP(=O)(O)OP(=O)(O)O)[C@@H](O)[C@H]1O [ATP]		Addition of ATP to crenactin resulted in an increase of scattering
